Measured values from patent publication US7919493B2, “Anititumoral ecteinascidin derivatives” (Pharma Mar, S.A., priority 2001, dated 2011).

Tests used:
Format in all cases: cell-based
A549 = test: Cytotoxic assay, sulforhodamine B (SRB), A549; details: Homo sapiens; A549 cells, 48 hours exposure, SRB method
Excerpt: (§1) A colorimetric type of assay, using sulforhodamine B (SRB) reaction has been adapted for a quantitative measurement of cell growth and viability (following the technique described by Skehan P et al. J. Natl. Cancer Inst. 1990, 82, 1107-1112).
(§2) This form of assay employs 96-well cell culture microplates of 9 mm diameter (Faircloth et al. Methods in cell science, 1988, 11(4), 201-205; Mosmann et al, Journal of. Immunological. Methods, 1983, 65(1-2), 55-63). Most of the cell lines are obtained from American Type Culture Collection (ATCC) derived from different human cancer types. Cells are maintained in RPMI 1640 10% FBS, supplemented with 0.1 g/L penicillin and 0.1 g/l streptomycin sulfate and then incubated at 37° C., 5% CO2 and 98% humidity. For the experiments, cells were harvested from subconfluent cultures using trypsin and resuspended in fresh medium before counting and plating.
(§3) Cells were seeded in 96 well microtiter plates at 5×10^3 cells per well in aliquots of 195 μL medium, and allowed to attach to the plate surface for 18 hours in drug free medium. Afterwards, samples are in aliquots of 5 μL in a ranging from 10 to 10-8 μg/mL dissolved in DMSO/ETOH (0.2% in PS buffer). After 48 hours exposure, the antitumor effect are measured by the SRB method: cells are fixed by adding 50 μL of cold 50% (w/v) trichloroacetic acid and incubating for 60 minutes at 4° C. Plates are washed with deionised water and dried. 100 μL of SRB solution (0.4% w/v in 1% acetic acid) is added to each microtiter well and incubated for 10 minutes at room temperature. Unbound SRB is removed by washing with 1% acetic acid. Plates are air-dried and bound stain is solubilized with Tris Buffer. Optical densities are read on an automated spectrophotometric plate reader at a single wavelength of 490 nm.
(§4) The values for mean ±SD of data from triplicate wells are calculated. GI50 (concentration that produces 50% growth inhibition) parameter was calculated (NCI algorithm) by automatic interpolation.

HT29 = test: Cytotoxic assay, sulforhodamine B (SRB), HT29; details: Homo sapiens, HT-29; HT29 cells, 48 hours exposure, SRB method
Excerpt: as §1, §2, §3, §4

MEL-28 = test: Cytotoxic assay, sulforhodamine B (SRB), MEL-28; details: Homo sapiens, SK-MEL-28; MEL-28 cells, 48 hours exposure, SRB method
Excerpt: as §1, §2, §3, §4

DU-14S = test: Cytotoxic assay, sulforhodamine B (SRB), DU-14S; details: Homo sapiens; DU-14S cells, 48 hours exposure, SRB method
Excerpt: as §1, §2, §3, §4

Row | SMILES | GI50 (A549) | GI50 (HT29) | GI50 (MEL-28) | GI50 (DU-14S)
1 | COc1c(C)cc2c(c1O)[C@@H]1[C@@H]3[C@@H]4SC[C@H](NC(=O)[C@@H]5CCCN5C(=O)OC(C)(C)C)C(=O)OC[C@@H](c5c6c(c(C)c(OC(C)=O)c54)OCO6)N3[C@@H](O)[C@H](C2)N1C [Compound 16b] | 1.23 nM | 1.23 nM | 1.11 nM | 0.37 nM
2 | COc1c(C)cc2c(c1O)[C@@H]1[C@@H]3[C@@H]4SC[C@H](NC(=O)[C@@H]5CCCN5)C(=O)OC[C@@H](c5c6c(c(C)c(OC(C)=O)c54)OCO6)N3[C@@H](C#N)[C@H](C2)N1C [Compound 15f] | 2.78 nM | 0.278 nM | – | –
3 | COc1c(C)cc2c(c1O)[C@@H]1[C@@H]3[C@@H]4SC[C@H](NC(=O)c5cccnc5Cl)C(=O)OC[C@@H](c5c6c(c(C)c(OC(C)=O)c54)OCO6)N3[C@@H](C#N)[C@H](C2)N1C [Compound 15c] | 1.8 nM | 2.93 nM | 1.21 nM | 0.468 nM
4 | COc1c(C)cc2c(c1O)[C@@H]1[C@@H]3[C@@H]4SC[C@H](NC(=O)c5cc6ccccc6oc5=O)C(=O)OC[C@@H](c5c6c(c(C)c(OC(C)=O)c54)OCO6)N3[C@@H](C#N)[C@H](C2)N1C [Compound 15a] | 2.83 nM | 4.38 nM | 3.23 nM | 4.38 nM
5 | COc1c(C)cc2c(c1O)[C@@H]1[C@@H]3[C@@H]4SC[C@H](NC(=O)c5cnn(-c6ccccc6)c5C(F)(F)F)C(=O)OC[C@@H](c5c6c(c(C)c(OC(C)=O)c54)OCO6)N3[C@@H](O)[C@H](C2)N1C [Compound 16e] | 35.1 nM | 38.6 nM | 29.8 nM | 27.2 nM
6 | COc1c(C)cc2c(c1O)[C@@H]1[C@@H]3[C@@H]4SC[C@H](NC(=O)c5cnn(-c6ccccc6)c5C(F)(F)F)C(=O)OC[C@@H](c5c6c(c(C)c(OC(C)=O)c54)OCO6)N3[C@@H](C#N)[C@H](C2)N1C [Compound 15d] | 14.6 nM | 10.1 nM | – | –
7 | COc1c(C)cc2c(c1O)[C@@H]1[C@@H]3[C@@H]4SC[C@H](NC(=O)c5cc(C)on5)C(=O)OC[C@@H](c5c6c(c(C)c(OC(C)=O)c54)OCO6)N3[C@@H](C#N)[C@H](C2)N1C [Compound 15e] | 5.77 nM | 5.36 nM | 2.58 nM | 3.84 nM
8 | COc1c(C)cc2c(c1O)[C@@H]1[C@@H]3[C@@H]4SC[C@H](NC(=O)c5cc(C)on5)C(=O)OC[C@@H](c5c6c(c(C)c(OC(C)=O)c54)OCO6)N3[C@@H](O)[C@H](C2)N1C [Compound 16f] | 3.47 nM | 4.3 nM | 5.13 nM | 3.4 nM
9 | COc1c(C)cc2c(c1O)[C@@H]1[C@@H]3[C@@H]4SC[C@H](NC(=O)c5cc6ccccc6oc5=O)C(=O)OC[C@@H](c5c6c(c(C)c(OC(C)=O)c54)OCO6)N3[C@@H](O)[C@H](C2)N1C [Compound 16a] | 2.94 nM | 3.94 nM | 3.02 nM | 4.73 nM
10 | COc1c(C)cc2c(c1O)[C@@H]1[C@@H]3[C@@H]4SC[C@H](NC(=O)c5cccnc5Cl)C(=O)OC[C@@H](c5c6c(c(C)c(OC(C)=O)c54)OCO6)N3[C@@H](O)[C@H](C2)N1C [Compound 16d] | 1330 nM | 13300 nM | 2.5 nM | 2.16 nM
11 | COc1c(C)cc2c(c1O)[C@@H]1[C@@H]3[C@@H]4SC[C@H](NC(=O)[C@@H]5CCCN5)C(=O)OC[C@@H](c5c6c(c(C)c(OC(C)=O)c54)OCO6)N3[C@@H](O)[C@H](C2)N1C [Compound 16c] | 5.63 nM | 0.0422 nM | 0.281 nM | 1.13 nM
12 | COc1c(C)cc2c(c1O)[C@@H]1[C@@H]3[C@@H]4SC[C@H](NC(=O)[C@@H]5CCCN5C(=O)OC(C)(C)C)C(=O)OC[C@@H](c5c6c(c(C)c(OC(C)=O)c54)OCO6)N3[C@@H](C#N)[C@H](C2)N1C [Compound 15b] | 7.32 nM | 3.66 nM | – | –
